Test results from the supplement of paper PMC10307832.

Key:
Test in all cases: relative viability (nuclei count vs DMSO), 5 days (fraction); higher = more cells survive
[1] = compound: C1CN(CCN1)C2=CC=C(C=C2)C3=CN4C(=C(C=N4)C5=CC=NC6=CC=CC=C56)N=C3 [DM3189] + CC(C)C[C@H](NC(=O)[C@H](Cc1ccccc1)NC(=O)c1cnccn1)B(O)O [Bortezomib] (partner 0.002 µM)
In short: (§1)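 Dosing by pin tool came one day after lung cancer cell lines were seeded in 1536-well plates, using either one drug or a fixed anchor-drug dose plus five library-drug doses (not always all listed) in √10 steps. After 5 days, nuclei were counted on 4× images. Relative viability is treated-well nuclei count divided by vehicle-well nuclei count, and values are medians of duplicate plates.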

[2] = compound: C1CN(CCN1)C2=CC=C(C=C2)C3=CN4C(=C(C=N4)C5=CC=NC6=CC=CC=C56)N=C3 [DM3189] + COc1cc2c(Oc3ccc(NC(=O)C4(C(=O)Nc5ccc(F)cc5)CC4)cc3F)ccnc2cc1OCCCN1CCOCC1 [Foretinib] (partner 0.25 µM)
In short: as §1

[3] = compound: C1CN(CCN1)C2=CC=C(C=C2)C3=CN4C(=C(C=N4)C5=CC=NC6=CC=CC=C56)N=C3 [DM3189] + Nc1ncn([C@H]2C[C@H](O)[C@@H](CO)O2)c(=O)n1 [Decitabine] (partner 2 µM)
In short: as §1

[4] = compound: C1CN(CCN1)C2=CC=C(C=C2)C3=CN4C(=C(C=N4)C5=CC=NC6=CC=CC=C56)N=C3 [DM3189] + CC(=O)c1c(C)c2cnc(Nc3ccc(N4CCNCC4)cn3)nc2n(C2CCCC2)c1=O [Palbociclib] (partner 0.5 µM)
In short: as §1

[5] = compound: C1CN(CCN1)C2=CC=C(C=C2)C3=CN4C(=C(C=N4)C5=CC=NC6=CC=CC=C56)N=C3 [DM3189] + Nc1nc2[nH]cc(CCc3ccc(C(=O)N[C@@H](CCC(=O)O)C(=O)O)cc3)c2c(=O)[nH]1 [Pemetrexed] (partner 0.2 µM)
In short: as §1

Cell Line | relative viability ([1]; first compound 0.08 µM) | relative viability ([1]; first compound 0.253 µM) | relative viability ([1]; first compound 0.8 µM) | relative viability ([1]; first compound 2.53 µM) | relative viability ([2]; first compound 0.08 µM) | relative viability ([2]; first compound 0.253 µM) | relative viability ([2]; first compound 0.8 µM) | relative viability ([2]; first compound 2.53 µM) | relative viability ([3]; first compound 0.08 µM) | relative viability ([3]; first compound 0.253 µM) | relative viability ([3]; first compound 0.8 µM) | relative viability ([3]; first compound 2.53 µM) | relative viability ([4]; first compound 0.08 µM) | relative viability ([4]; first compound 0.253 µM) | relative viability ([4]; first compound 0.8 µM) | relative viability ([4]; first compound 2.53 µM) | relative viability ([5]; first compound 0.08 µM) | relative viability ([5]; first compound 0.253 µM) | relative viability ([5]; first compound 0.8 µM) | relative viability ([5]; first compound 2.53 µM)
201T | 1.15 | 1.07 | 1.05 | 1.09 | 1.01 | 1.03 | 0.73 | 1.27 | 0.831 | 0.817 | 0.828 | 0.875 | 0.419 | 0.364 | 0.342 | 0.366 | 0.347 | 0.322 | 0.279 | 0.331
A-427 | 1.12 | 0.962 | 0.876 | 0.97 | 1.09 | 1.23 | 1.04 | 1.22 | 0.591 | 0.546 | 0.541 | 0.618 | 0.593 | 0.492 | 0.474 | 0.524 | 1.17 | 0.897 | 0.954 | 1
BEN | 0.926 | 0.781 | 0.686 | 0.771 | 0.79 | 0.582 | 0.533 | 0.734 | 0.7 | 0.707 | 0.714 | 0.752 | 0.497 | 0.484 | 0.441 | 0.545 | 0.985 | 0.72 | 0.776 | 0.796
COR-L23 | 0.83 | 1.02 | 0.908 | 0.746 | 1.12 | 0.844 | 0.828 | 0.993 | 0.424 | 0.39 | 0.348 | 0.434 | 0.292 | 0.242 | 0.201 | 0.192 | 0.181 | 0.179 | 0.174 | 0.21
COR-L 105 | 1.38 | 0.771 | 0.795 | 0.322 | 1.22 | 1.23 | 1.06 | 1.17 | 0.781 | 0.689 | 0.535 | 0.635 | 0.408 | 0.441 | 0.353 | 0.489 | 1.13 | 1.22 | 1.26 | 1.13
ChaGo-K-1 | 1.32 | 0.882 | 1.01 | 0.757 | 1.07 | 0.903 | 0.858 | 0.976 | 0.521 | 0.507 | 0.475 | 0.537 | 0.947 | 0.908 | 0.914 | 0.964 | 0.255 | 0.266 | 0.261 | 0.264
EKVX | 1.1 | 1.01 | 1.04 | 1.2 | 0.892 | 0.82 | 0.539 | 0.803 | 0.331 | – | 0.359 | 0.363 | 0.402 | – | 0.291 | 0.393 | 0.499 | – | 0.302 | 0.368
EMC-BAC-2 | 1.12 | 1.01 | 0.956 | 1.1 | 0.981 | 0.966 | 0.938 | 1.18 | 0.954 | 0.968 | 0.909 | 1.01 | 0.515 | 0.494 | 0.484 | 0.525 | 0.47 | 0.395 | 0.406 | 0.486
EPLC-272H | 1.07 | 0.86 | 0.868 | 0.831 | 0.677 | 0.67 | 0.783 | 0.59 | 0.374 | 0.359 | 0.364 | 0.424 | 0.321 | 0.318 | 0.343 | 0.341 | 0.275 | 0.318 | 0.338 | 0.276
H3255 | 1.46 | 0.812 | 0.708 | 0.801 | 1.13 | 0.936 | 0.764 | 0.85 | 0.718 | 0.748 | 0.473 | 0.71 | 0.37 | 0.313 | 0.308 | 0.329 | 0.682 | 0.537 | 0.555 | 0.559
HARA | 1.28 | 1.11 | 1.04 | 1.2 | 0.979 | 0.454 | 0.87 | 1.09 | 0.523 | 0.574 | 0.531 | 0.555 | 0.288 | 0.194 | 0.225 | 0.263 | 0.239 | 0.205 | 0.227 | 0.232
HCC-15 | 1.11 | 1 | 0.978 | 0.862 | 1.16 | 0.962 | 1 | 0.927 | 0.648 | 0.674 | 0.571 | 0.534 | 0.832 | 0.721 | 0.675 | 0.844 | 0.219 | 0.208 | 0.207 | 0.211
HCC-78 | 0.486 | 0.571 | 0.403 | 0.571 | 0.549 | 0.534 | 0.529 | 0.435 | 0.723 | 0.644 | 0.632 | 0.625 | 0.479 | 0.395 | 0.423 | 0.586 | 0.918 | 0.918 | 0.848 | 0.927
HCC-366 | 1.12 | 0.99 | 0.931 | 1.06 | 0.939 | 0.975 | – | 0.936 | 0.396 | 0.293 | 0.269 | 0.341 | 0.408 | 0.286 | 0.244 | 0.341 | 0.139 | 0.166 | 0.116 | 0.149
HCC-827 | 1.12 | 0.958 | 0.985 | 1.06 | 1.1 | 0.945 | 0.953 | 0.935 | 0.34 | 0.311 | 0.324 | 0.296 | 0.539 | 0.437 | 0.452 | 0.428 | 0.279 | 0.244 | 0.249 | 0.275
